# From patent US20110263478A1, “SUR1 INHIBITORS FOR THERAPY” (priority 2008, published 2011)
# Tests used:
# [1] = system: NCCa-ATP channels in bEnd.3 cells; test: Patch clamp, Na azide-induced ATP depletion current in endothelial cells exposed to hypoxia; assay type: cell-based, murine; conditions: 1 μM glibenclamide; hypoxic endothelial cells
# Experimental: Patch clamp of endothelial cells was performed using a nystatin-perforated patch technique, to maintain the metabolic integrity of the cells. The identity of the activated channel can be assessed by measurement of the “reversal potential”, the potential at which an ion channel current reverses from inward to outward. With physiologically relevant concentrations of ions intracellularly and extracellularly (high potassium inside, high sodium outside), the reversal potential can unambiguously distinguish between a K^+ channel current such as KATP, which reverses negative to −50 mV and a non-selective cation channel current such as NCCa-ATP, which reverses near 0 mV.
# Cell culture. Endothelial cell cultures from human brain microvessels, human aorta (ScienCell Research Laboratories), and murine brain microvessels (bEnd.3; ATCC), were grown at low density using media and supplements recommended by suppliers.
# [2] = system: rats with spinal cord injury (SCI); test: Rat cervical SCI model: histology, capillaries and lesion size; assay type: in vivo
# Experimental: SCI injury model. This study was performed in accordance with the guidelines of the Institutional Animal Care and Use Committee. Adult female Long-Evans rats (275-350 gm) were anesthetized (Ketamine, 60 mg/kg plus Xylazine, 7.5 mg/kg, i.p.). The dura at C4-5 was exposed via a left hemilaminectomy. A hemi-cervical spinal cord contusion was created using a blunt force impactor (1.3-mm impactor head driven by a 10 gm weight dropped vertically 25 mm) (Soblo sky et al., 2001; Gensel et al., 2006). After SCI, animals were given 10 ml of glucose-free normal saline s.q. Rectal temperature was maintained at ˜37° C. using a servo-controlled warming blanket. Blood gases and serum glucose 10-15 min post-SCI were: pO2, 95±6 mm Hg; pCO2, 46±3 mm Hg; pH, 7.33±0.01; glucose 258±17 mg/dl in controls and pO2, 96±7 mm Hg; pCO2, 45±2 mm Hg; pH, 7.37±0.01; glucose 242±14 mg/dl in glibenclamide-treated animals.
# Drug delivery. […] During the course of the project, slightly different formulations of drug were used, with the best results obtained using stock solutions made by placing 50 mg (or 25 mg) of drug into 10 ml DMSO, and infusion solutions made by placing 400 μl (or 800 μl) stock into 4.6 ml (or 4.2 ml) unbuffered saline (0.9% NaCl) and adjusting the pH to ˜8.5 using 0.1 N NaOH.
# Lesion size. At 7 d post-SCI, cords were paraffin sectioned and stained with H&E. Lesion volumes were calculated from lesion areas measured on serial sections every 250 μm.
# Immunohistochemistry. Cryosections were immunolabeled (Chen et al., 2003; Simard et al., 2006) using primary antibodies directed against SUR1 (Santa Cruz, C-16; 1:200; 1 h at RT, 48 h at 4° C.), SUR2 (Santa Cruz, H-80; 1:200; 1 h at RT, 48 h at 4° C.), GFAP (Sigma, C-9205; 1:500), and vimentin (Sigma, monoclonal CY3 conjugated; 1:100). Quantitative immunofluorescence was performed as described (Gerzanich et al., 2003).
# [3] = cited from earlier work
# [4] = in humans; cited from earlier work
# [5] = system: rodent models of ischemic stroke; conditions: cited from earlier work
# [6] = model of malignant cerebral edema
structure (smiles),measurement,setting,value
COc1ccc(Cl)cc1C(=O)NCCc1ccc(S(=O)(=O)NC(=O)NC2CCCCC2)cc1 [glibenclamide],block of Na azide-induced ohmic current,[1],blocked
same,"lesion, reactive gliosis and myelin (GFAP and myelin labeling)","[2]; 24 h post-SCI, vs controls","smaller lesions, less reactive gliosis and better myelin preservation"
same,"lesion volume, reduction compared to controls",[2]; 7 d post-SCI,3 fold
same,vimentin(+) capillaries in region of injury,"[2]; post-SCI, vs controls",the capillaries were elongated and appeared more normal
same,pKa,[3],6.3
same,volume of distribution,[4],0.2 L/kg
same,reduction of cerebral edema (excess water),[5]; [6],half
same,reduction of mortality,[5]; [6],half
same,reduction of lesion volume,[5]; stroke induced by thromboemboli,half
